Test results from US20080194616A1, “PYRIDOPYRIMIDINONE COMPOUNDS USEFUL IN TREATING SODIUM CHANNEL-MEDIATED DISEASES OR CONDITIONS” (Xenon Pharmaceuticals Inc., priority 2007, published 2008).
Structures can show the parent of a compound that is named as a salt.

Molecule `CCCCc1nc2ccccn2c(=O)c1-c1ccc(N2CCNCC2)nc1` (as salt: hydrochloride) [Example 7.13, 2-butyl-3-(6-piperazin-1-ylpyridin-3-yl)-4H-pyrido[1,2-a]pyrimidin-4-one hydrochloride] has a melting point greater than 245 °C.
With `CCCOc1nc2ccccn2c(=O)c1-c1ccc(N[C@@H]2CCNC2)cc1` (as salt: trifluoroacetate) [Example 9.1, (R)-2-propoxy-3-(4-(pyrrolidin-3-ylamino)phenyl)-4H-pyrido[1,2-a]pyrimidin-4-one trifluoroacetate] the melting point was > 100 °C (dec.).
For `CCCCc1nc2ccccn2c(=O)c1-c1cccc(NC2CCNC2)c1` (centres unmarked) (as salt: hydrochloride) [Example 7.4, 2-butyl-3-[3-(pyrrolidin-3-ylamino)phenyl]-4H-pyrido[1,2-a]pyrimidin-4-one hydrochloride], the melting point was greater than 170 °C.

`CC(C)Nc1nc2ccccn2c(=O)c1-c1ccc(N[C@@H]2CCNC2)cc1` (as salt: hydrochloride) [Example 7.10, (R)-2-[(1-methylethyl)amino]-3-{4-[pyrrolidin-3-ylamino]phenyl}-4H-pyrido[1,2-a]pyrimidin-4-one hydrochloride] and `CC(C)Nc1nc2ccccn2c(=O)c1-c1ccc(NC2CCNC2)cc1` (centres unmarked) (as salt: hydrochloride) [Example 7.9, 2-[(1-methylethyl)amino]-3-[4-(pyrrolidin-3-ylamino)phenyl]-4H-pyrido[1,2-a]pyrimidin-4-one hydrochloride] cannot be ordered by melting point: 229 to 234 °C for the first, 232 to 236 °C for the second.

First: CCCCc1nc2ccccn2c(=O)c1-c1ccc2c(c1)CCN2C1CCNC1 (centres unmarked) (as salt: hydrochloride) [Example 7.12, 2-butyl-3-(1-(pyrrolidin-3-yl)indolin-5-yl)-4H-pyrido[1,2-a]pyrimidin-4-one hydrochloride]
Second: CCCCc1nc2ccccn2c(=O)c1-c1ccc(N[C@@H]2CCNC2)c(F)c1 (as salt: hydrochloride) [Example 7.2, (R)-2-butyl-3-{3-fluoro-4-[(pyrrolidin-3-ylamino]phenyl}-4H-pyrido[1,2-a]pyrimidin-4-one hydrochloride]
The melting point of the first is higher: 159 to 163 °C for the first, 143 to 155 °C for the second.

First: CCCCc1nc2ccccn2c(=O)c1-c1ccc(N[C@@H]2CCN(C)C2)cc1 [Example 10, (R)-2-butyl-3-(4-{[1-methylpyrrolidin-3-yl]amino}phenyl)-4H-pyrido[1,2-a]pyrimidin-4-one]
Second: CCCCc1nc2ccccn2c(=O)c1-c1ccc(N[C@H]2CCNC2)cc1 (as salt: hydrochloride) [Example 7.1, (S)-2-butyl-3-{4-[pyrrolidin-3-ylamino]phenyl}-4H-pyrido[1,2-a]pyrimidin-4-one hydrochloride]
The melting point of the first is lower: 141 to 143 °C for the first, 164 to 171 °C for the second.

First: CCc1nc2ccccn2c(=O)c1-c1ccc(N[C@@H]2CCNC2)cc1 (as salt: hydrochloride) [Example 6.4, (R)-2-ethyl-3-(4-(pyrrolidin-3-ylamino)phenyl)-4H-pyrido[1,2-a]pyrimidin-4-one hydrochloride]
Second: CCCCc1nc2ccccn2c(=O)c1-c1ccc(NC2CCNC2)cc1 (centres unmarked) (as salt: hydrochloride) [Example 7, 2-butyl-3-(4-(pyrrolidin-3-ylamino)phenyl)-4H-pyrido[1,2-a]pyrimidin-4-one hydrochloride]
The melting point of the first is higher: 175 to 182 °C for the first, 136 to 139 °C for the second.

Compared with `CCCCc1nc2ccccn2c(=O)c1-c1ccc(N(C)C2CCCNC2)cc1` (centres unmarked) (as salt: hydrochloride) [Example 17, 2-butyl-3-{4-[methyl(piperidin-3-yl)amino]phenyl}-4H-pyrido[1,2-a]pyrimidin-4-one hydrochloride], `CCCCc1nc2ccccn2c(=O)c1-c1ccc(N[C@@H]2CCCNC2)cc1` (as salt: hydrochloride) [Example 6.2, (R)-2-butyl-3-{4-[piperidin-3-ylamino]phenyl}-4H-pyrido[1,2-a]pyrimidin-4-one hydrochloride] is higher in melting point: 170 to 185 °C for the first, 190 to 210 °C for the second.

Compared with `CC(C)CCc1nc2ccccn2c(=O)c1-c1ccc(Cl)cc1` [Example 1.17, 3-(4-chlorophenyl)-2-isopentyl-4H-pyrido[1,2-a]pyrimidin-4-one], `CCCc1nc2ccccn2c(=O)c1-c1ccc(Cl)cc1` [Example 1.4, 3-(4-chlorophenyl)-2-propyl-4H-pyrido[1,2-a]pyrimidin-4-one] is lower in melting point: 146 to 149 °C for the first, 109 to 110 °C for the second.

First: CCCCc1nc2ccccn2c(=O)c1-c1ccc(Cl)c(C)c1 [Example 1.10, 2-butyl-3-(4-chloro-3-methylphenyl)-4H-pyrido[1,2-a]pyrimidin-4-one]
Second: CCCCc1nc2ccccn2c(=O)c1-c1ccc(OC)c(Cl)c1 [Example 1.13, 2-butyl-3-(3-chloro-4-methoxyphenyl)-4H-pyrido[1,2-a]pyrimidin-4-one]
The melting point of the first is higher: 122 to 124 °C for the first, 113 to 115 °C for the second.

`CCCCc1nc2ccccn2c(=O)c1-c1ccc(NC[C@H]2CCCO2)cc1` (as salt: hydrochloride) [Example 3.27, (R)-2-butyl-3-(4-{[tetrahydrofuran-2-ylmethyl]amino}phenyl)-4H-pyrido[1,2-a]pyrimidin-4-one hydrochloride] and `CCCCc1nc2ccccn2c(=O)c1-c1ccc(NC[C@@H]2CCCO2)cc1` (as salt: hydrochloride) [Example 3.28, (S)-2-butyl-3-(4-{[tetrahydrofuran-2-ylmethyl]amino}phenyl)-4H-pyrido[1,2-a]pyrimidin-4-one hydrochloride] fall in the same range of melting point: 155 to 170 °C for the first, 155 to 170 °C for the second.

First: CCCCc1nc2ccccn2c(=O)c1-c1ccc(NC2CCCNC2)cc1 (centres unmarked) (as salt: hydrochloride) [Example 6, 2-butyl-3-[4-(piperidin-3-ylamino)phenyl]-4H-pyrido[1,2-a]pyrimidin-4-one hydrochloride]
Second: CCCCc1nc2ccccn2c(=O)c1-c1ccc(N[C@@H]2CCOC2)cc1 (as salt: hydrochloride) [Example 3.29, (R)-2-butyl-3-{4-[tetrahydrofuran-3-ylamino]phenyl}-4H-pyrido[1,2-a]pyrimidin-4-one hydrochloride]
The melting point of the first is higher: 178 to 185 °C for the first, 135 to 145 °C for the second.

First: CCCNc1nc2ccccn2c(=O)c1-c1ccc(NC2CCNC2)cc1 (centres unmarked) (as salt: hydrochloride) [Example 7.8, 2-(propylamino)-3-[4-(pyrrolidin-3-ylamino)phenyl]-4H-pyrido[1,2-a]pyrimidin-4-one hydrochloride]
Second: COc1nc2ccccn2c(=O)c1-c1ccc(NC2CCNC2)cc1 (centres unmarked) (as salt: trifluoroacetate) [Example 9, 2-methoxy-3-[4-(pyrrolidin-3-ylamino)phenyl]-4H-pyrido[1,2-a]pyrimidin-4-one trifluoroacetate]
The melting point of the first is higher: 156 to 161 °C for the first, 56 to 58 °C for the second.

First: CCCCc1nc2ccccn2c(=O)c1-c1ccc(N[C@H]2CCN(C(=O)OC(C)(C)C)C2)cc1 [Example 3.8, (S)-tert-butyl 3-(4-(2-butyl-4-oxo-4H-pyrido[1,2-a]pyrimidin-3-yl)phenylamino)pyrrolidine-1-carboxylate]
Second: CCCCc1nc2ccccn2c(=O)c1-c1ccc(NC2CCN(C(=O)OC(C)(C)C)C2)cc1 (centres unmarked) [Example 3.7, tert-butyl 3-{[4-(2-butyl-4-oxo-4H-pyrido[1,2-a]pyrimidin-3-yl)phenyl]amino}pyrrolidine-1-carboxylate]
The melting point of the first is lower: 95 to 96 °C for the first, 116 to 118 °C for the second.

`O=c1c(-c2ccc(N[C@@H]3CCNC3)cc2)c(N2CCCC2)nc2ccccn12` (as salt: chloride) [Example 7.11, (R)-2-pyrrolidin-1-yl-3-{4-[pyrrolidin-3-ylamino]phenyl}-4H-pyrido[1,2-a]pyrimidin-4-one hydrogen chloride] and `CC(C)c1nc2ccccn2c(=O)c1-c1ccc(NC2CCNC2)cc1` (centres unmarked) (as salt: hydrochloride) [Example 7.5, 2-(1-methylethyl)-3-[4-(pyrrolidin-3-ylamino)phenyl]-4H-pyrido[1,2-a]pyrimidin-4-one hydrochloride] cannot be ordered by melting point: 177 to 183 °C for the first, 180 to 184 °C for the second.

First: CCCCc1nc2ccccn2c(=O)c1-c1ccc2c(c1)CCN2 (as salt: hydrochloride) [Example 2, 2-butyl-3-(indolin-5-yl)-4H-pyrido[1,2-a]pyrimidin-4-one hydrochloride]
Second: CCCCc1nc2ccccn2c(=O)c1-c1ccc(Cl)cc1C [Example 1.9, 2-butyl-3-(4-chloro-2-methylphenyl)-4H-pyrido[1,2-a]pyrimidin-4-one]
The melting point of the first is higher: 157 to 162 °C for the first, 105 to 107 °C for the second.

Compared with `CCCCc1nc2ccccn2c(=O)c1-c1ccc(N[C@@H]2CCN(C(=O)OC(C)(C)C)C2)cc1` [Example 3.9, (R)-tert-butyl 3-(4-(2-butyl-4-oxo-4H-pyrido[1,2-a]pyrimidin-3-yl)phenylamino)pyrrolidine-1-carboxylate], `CC(C)Nc1nc2ccccn2c(=O)c1-c1ccc(N[C@@H]2CCN(C(=O)OC(C)(C)C)C2)cc1` [Example 3.23, (R)-tert-butyl 3-[(4-{2-[(1-methylethyl)amino]-4-oxo-4H-pyrido[1,2-a]pyrimidin-3-yl}phenyl)amino]pyrrolidine-1-carboxylate] is higher in melting point: 98 to 99 °C for the first, 208 to 211 °C for the second.

First: CCCCc1nc2ccccn2c(=O)c1-c1ccc(O[C@@H]2CCNC2)cc1 (as salt: hydrochloride) [Example 15, (R)-2-butyl-3-{4-[pyrrolidin-3-yloxy]phenyl}-4H-pyrido[1,2-a]pyrimidin-4-one hydrochloride]
Second: O=c1c(-c2ccc(N[C@@H]3CCNC3)cc2)c(CCC2CC2)nc2ccccn12 (as salt: hydrochloride) [Example 7.7, (R)-2-(2-cyclopropylethyl)-3-(4-(pyrrolidin-3-ylamino)phenyl)-4H-pyrido[1,2-a]pyrimidin-4-one hydrochloride]
The melting point of the first is lower: 132 to 140 °C for the first, 182 to 185 °C for the second.

First: CCCCc1nc2ccccn2c(=O)c1-c1ccccc1Cl [Example 1.6, 2-butyl-3-(2-chlorophenyl)-4H-pyrido[1,2-a]pyrimidin-4-one]
Second: COCCc1nc2ccccn2c(=O)c1-c1ccc(Cl)cc1 [Example 1.26, 3-(4-chlorophenyl)-2-(2-methoxyethyl)-4H-pyrido[1,2-a]pyrimidin-4-one]
The melting point of the first is higher: 118 to 120 °C for the first, 116 to 118 °C for the second.
